Where two headings read alike, the source gives them in different places.
Columns and labels:
[1] = RP-TLC lipophilicity on RP-18F254 plates (Soczewiński-Wachtmeister's and Ościk's equations); assay type: physicochemical; settings: for RMWO(a) / RMWO(m): Ościk's equation; for RMWO(a) / RMWS(a) / φ0(a): acetone-water mobile phase; for RMWO(a) / RMWO(m) / RMWS(a) / RMWS(m): silica gel RP-18F254; for RMWO(m) / RMWS(m) / φ0(m): methanol-water mobile phase; for RMWS(a) / RMWS(m): Soczewiński-Wachtmeister's equation; for φ0(a) / φ0(m): φ0 = RMWS/S (Equation 6)
Procedure: The chromatographic analysis was carried on RP-18F254 plates (Art.1.05559, E. Merck, Darmstadt, Germany). The solutions of the investigated compounds were spotted separately onto chromatographic plates using precise micropipettes in a quantity of 5 µL each.
The chromatograms were developed using the mixtures of methanol-water and acetone-water in different volume compositions, as follows:
For antiparasitic drugs: • - the content of methanol was gradually varied by 10% (v/v) from 20–100 (%, v/v), • - the content of acetone was gradually varied by 10% (v/v) from 10–100 (%, v/v).
In the case of antihypertensive drugs, the content of methanol and acetone was gradually varied by 5% (v/v) from 60–100 (%, v/v).
For non-steroidal anti-inflammatory drugs: • - the content of methanol was gradually varied by 5% (v/v) from 60–100 (%, v/v), • - the content of acetone was gradually varied by10% (v/v) from 20–100 (%, v/v).
Next, the chamber was saturated with solvent vapor for 20 min. The chromatograms were developed at room temperature, e.g., 22 ± 1 °C. The development distance was 75 mm. The plates were dried at room temperature, e.g., 22 ± 1 °C. Each chromatogram was done in triplicate.
Densitometric scanning was done using a TLC Scanner 3 with WinCATS 1.4.2 software manufactured by Camag (Muttenz, Switzerland) in the reflectance/absorbance mode.
Densitometric scanning was performed at a respective absorption maximum for the analyzed drugs. The slit dimensions were 10.00 × 0.40 mm, Macro; the optimized optical system was light; the scanning speed was 20 mm/s; the data resolution was 100 μm/step; the measurement type was remission; the measurement mode was absorption; and the optical filter was second order. Each track was scanned three times, and a baseline correction (lowest slope) was used.
In order to determine the lipophilicity parameter based on Soczewiński-Wachtmeister′s procedure, the RF values obtained under the applied chromatographic conditions were converted into RM values according to the expression:(4) RM=log1/RF−1 The linear relationship between RM and the volume content of methanol and acetone in the mobile phase (φ) permits an extrapolation of the calculated RM values to the zero concentration of methanol and acetone in accordance with Soczewiński-Wachtmeister′s Equation (5). […] (5) RM=RMWS−Sφ where: RM is the RM value of the studied compound, RMWS is the RM value extrapolated to zero concentration of methanol and acetone (organic modifier) in the used mobile phase, i.e., methanol-water and acetone-water, respectively, S is the slope of the regression plot (see Supplementary Materials), and φ is the volume fraction of methanol and acetone in the mobile phase. In addition to this, on the basis of the said plot, i.e., Soczewiński-Wachtmeister′s equation, another chromatographic descriptor (φ0) has been calculated according to the following formula (Equation (6)): (6) φ0 = RMWS/S where: RMWS is the chromatographic parameter obtained by using Soczewiński-Wachtmeister’s equation in accordance with Equation (5), and S is the regression slope.
The measurable lipophilicity value expressed as RMWO was determined according to Ościk’s equation [29, 30, 32]:(7) Gxorg=xorg1−xorg/RM−xorgRMorg−1−xorgRMWO=axorg+b where: RM, RMorg, and RMWO are the solute retention factors in the mixed mobile phase, pure organic solvent, and water, respectively; xorg is the molar fraction of the organic solvent in the mobile phase; a and b are constants in the linear correlation between G(xorg) and xorg in the used mobile phase.

[2] = Experimental n-octanol-water partition coefficient (logPexp) from literature and databases; assay type: physicochemical; settings: average of the differing literature logPexp values (± spread)
Source text: The next stage of this paper was a comparison of all obtained RMWS and RMWO parameters calculated using […] equations with theoretical and experimental logP values obtained in an n-octanol-water system.

[3] = cited from earlier work
[4] = set-up: method as in doi:10.1016/S0021-9673(01)88013-4; settings: RP-HPLC; cited from earlier work
[5] = n-octanol-water, cited from earlier work
[6] = cited from earlier work; remark: listed apart in the source
[7] = Prediction of logPexp from φ0(a) with Equation (3); assay type: physicochemical; settings: chromatography with acetone-water mobile phase; calculated from φ0(a) with Equation (3); read-out: predicted logPexp
Source text: The continuation of our lipophilicity study of fifteen biocompounds belonging to the three groups of drugs and the determination of another lipophilicity descriptor, namely φ0, in accordance with Equation (6), allowed us to obtain the two new lipophilicity parameters φ0(a) and φ0(m) for a proper used mobile phase, i.e., acetone-water (a) and methanol-water (m), respectively. What is important is that the calculation of this parameter was possible because a satisfactory linear relationship between both, i.e., the intercept and slope (RMWS and S), in each obtained Soczewiński-Wachtmeister’s equation was achieved (r > 0.98). In order to estimate the utility of these parameters for the prediction of the theoretical as well as experimental parameter of the lipophilicity of a large group of investigated compounds, a correlation matrix between all previously described (thus chromatographic) parameters, as well as the computed and experimental partition coefficient, was done. The results of the correlation analysis indicate that among all φ0 values the best is the one obtained for acetone-water, which is to say φ0(a). […]
This fact confirms the potential utility of the additionally calculated chromatographic parameter φ0(a) to determine the partition coefficient of all examined compounds. It can be very useful in the case of the lack of this value, like for example for the experimental logP of nilvadipine, lacidipine and carprofen. A test was performed on Equation (3) to determine the values of logPexp for the three abovementioned compounds. The results of the predicted logPexp were: 3.65 for nilvadipine, 3.96 for lacidipine and 3.54 for carprofen, respectively. It can be observed that the newly obtained logPexp values are in good agreement with the other previously described theoretical logP of these compounds. They are placed in the similar range of logP values.

[8] = set-up: method as in PMID 9809446; settings: methanol-water, cited from earlier work
[9] = cited from earlier work; for Rm0: RP-18F254 plates, acetonitrile-water; for logP: calculated from regression curve Rm0 = f(logP)
[10] = set-up: method as in PMID 12972078; settings: RP-HPLC, cited from earlier work; for log kwODS: ODS column μBondapak C18; for log kw IAM: immobilized artificial membrane (IAM.PC.MG) column
[11] = RP-18WF254 plates, Soczewiński-Wachtmeister's equation

CCS(=O)(=O)CCn1c([N+](=O)[O-])cnc1C [Tinidazole, tinidazole]
RMWO(a) [1]: 1.11
RMWO(m) [1]: 1.69
RMWS(a) [1]: 0.89
RMWS(m) [1]: 1.17
φ0(a) [1]: 0.463
φ0(m) [1]: 0.612
logP [2]: 0.18

Cc1ncc([N+](=O)[O-])n1CCO [Metronidazole, metronidazole]
hydrophilic-hydrophobic properties ([3]; according to Hoffmann et al. and Jokipii et al.): lipophilic compound that penetrates well into most tissues
hydrophilic-hydrophobic properties ([3]; reported by Biagi): hydrophilic
hydrophilic-hydrophobic properties ([3]; reported by Másson et al.): very hydrophilic
RMWO(a) [1]: 0.94
RMWO(m) [1]: 1.21
RMWS(a) [1]: 0.65
RMWS(m) [1]: 0.91
φ0(a) [1]: 0.398
φ0(m) [1]: 0.564
logk' [4]: –0.067
logP [2]: 0.1
logPexp ([5]; ref 34): –0.22
logPexp ([5]; ref 35): –0.10
logPexp ([5]; ref 36): –0.02 [36]
logPexp ([5]; ref 37): 0.75 [37]
RMW ([6]; RP-TLC, Soczewiński-Wachtmeister's equation): 0.08
RMW(paraffin) ([6]; stationary phase liquid paraffin): 0.60
RMW(squalene) ([6]; stationary phase squalene): 0.53

CCOC(=O)C1=C(C)NC(C)=C(C(=O)OC)C1c1cccc(Cl)c1Cl (stereo not shown) [Felodipine, felodipine]
RMWO(a) [1]: 5.57
RMWO(m) [1]: 6.57
RMWS(a) [1]: 3.75
RMWS(m) [1]: 4.27
φ0(a) [1]: 0.775
φ0(m) [1]: 0.929
logP [2]: 4.16
logPexp ([5]; ref 6): 3.86 [6]
logPexp ([5]; ref 41): 4.46 [41]

COC(=O)C1=C(C#N)NC(C)=C(C(=O)OC(C)C)C1c1cccc([N+](=O)[O-])c1 (stereo not shown) [Nilvadipine, nilvadipine]
chromatographic logP [7]: 3.65
RMWO(a) [1]: 6.28
RMWO(m) [1]: 5.57
RMWS(a) [1]: 4.07
RMWS(m) [1]: 3.66
φ0(a) [1]: 0.764
φ0(m) [1]: 0.886

Cc1ncc([N+](=O)[O-])n1CC(O)CCl (stereo not shown) [Ornidazole, ornidazole]
RMWO(a) [1]: 1.42
RMWO(m) [1]: 1.92
RMWS(a) [1]: 1.22
RMWS(m) [1]: 1.46
φ0(a) [1]: 0.565
φ0(m) [1]: 0.676
logP [2]: 0.41

COc1ccc2c(c1)c(CC(=O)O)c(C)n2C(=O)c1ccc(Cl)cc1 [Indomethacin, indomethacin]
RMO ([8]; Nano-Sil CNF254 plates): 0.52
RMO [8, 11]: 2.62
RMWO(m) [1]: 4.08
RMWS(a) [1]: 2.57
RMWS(m) [1]: 2.19
φ0(a) [1]: 0.747
φ0(m) [1]: 0.790
logPexp ([5]; ref 36): 4.27 [36]
logPexp ([5]; ref 42): 4.10 [42]

CCCCC1C(=O)N(c2ccccc2)N(c2ccccc2)C1=O [Phenylbutazone, phenylbutazone]
RMO ([8]; Nano-Sil CNF254 plates): 1.50
RMO [8, 11]: 2.71
RMWO(m) [1]: 3.54
RMWS(a) [1]: 1.72
RMWS(m) [1]: 1.84

CC(C(=O)O)c1ccc(-c2ccccc2)c(F)c1 (stereo not shown) [Flurbiprofen, flurbiprofen]
Rm0 [9]: 2.5076
logP [9]: 3.82
RMWO(m) [1]: 2.26
RMWS(a) [1]: 1.87
RMWS(m) [1]: 1.98
φ0(a) [1]: 0.930
φ0(m) [1]: 0.771
logP [2]: 4
logPexp ([5]; ref 36): 4.16 [36]
logPexp ([5]; ref 42): 3.84 [42]
log kwODS [10]: 2.91
log kw IAM [10]: 1.58

COC(=O)C1=C(C)NC(C)=C(C(=O)OC(C)C)C1c1cccc2nonc12 (stereo not shown) [Isradipine, isradipine]
RMWO(a) [1]: 5.67
RMWO(m) [1]: 5.08
RMWS(a) [1]: 3.54
RMWS(m) [1]: 3.13
φ0(a) [1]: 0.751
φ0(m) [1]: 0.837
logPexp ([5]; ref 6): 4.28 [6]

Cc1ncc([N+](=O)[O-])n1CC(C)O (stereo not shown) [Secnidazole, secnidazole]
RMWO(a) [1]: 1.21
RMWO(m) [1]: 1.72
RMWS(a) [1]: 0.95
RMWS(m) [1]: 1.26
logPexp ([5]; ref 33): 0.22 [33]

Cc1cccc(Nc2ccccc2C(=O)O)c1C [Mefenamic Acid, mefenamic acid]
RMWO(m) [1]: 3.74
RMWS(a) [1]: 2.61
RMWS(m) [1]: 2.49
φ0(a) [1]: 0.789
φ0(m) [1]: 0.865
logPexp ([5]; ref 39): 5.12 [39]

CC(C(=O)O)c1cccc(C(=O)c2ccccc2)c1 (stereo not shown) [Ketoprofen, ketoprofen]
RMO ([8]; Nano-Sil CNF254 plates): 2.31
RMO [8, 11]: 1.74
Rm0 [9]: 1.8491
logP [9]: 2.66
RMWO(m) [1]: 3.76
RMWS(a) [1]: 1.26
RMWS(m) [1]: 1.47
φ0(a) [1]: 0.640
φ0(m) [1]: 0.687
log kwODS [10]: 2.83
log kw IAM [10]: 1.02

COc1ccc2cc(CCC(C)=O)ccc2c1 [Nabumetone, nabumetone]
RMWO(m) [1]: 2.52
RMWS(a) [1]: 3.08
RMWS(m) [1]: 3.12
φ0(a) [1]: 0.787
φ0(m) [1]: 0.903
logPexp ([5]; ref 43): 3.08 [43]

CCOC(=O)C1=C(C)NC(C)=C(C(=O)OCC)C1c1ccccc1/C=C/C(=O)OC(C)(C)C [Lacidipine, lacidipine]
chromatographic logP [7]: 3.96
RMWO(a) [1]: 6.63
RMWO(m) [1]: 6.89
RMWS(a) [1]: 4.51
RMWS(m) [1]: 5.01
φ0(a) [1]: 0.793
φ0(m) [1]: 0.937

CC(C(=O)O)c1ccc2c(c1)[nH]c1ccc(Cl)cc12 (stereo not shown) [Carprofen, carprofen]
chromatographic logP [7]: 3.54
RMWO(m) [1]: 2.77
RMWS(a) [1]: 2.56
RMWS(m) [1]: 2.34
φ0(a) [1]: 0.754
φ0(m) [1]: 0.820
log kwODS [10]: 3.85
log kw IAM [10]: 1.81

Reference: article PMC6749294, “Comparison of the Utility of RP-TLC Technique and Different Computational Methods to Assess the Lipophilicity of Selected Antiparasitic, Antihypertensive, and Anti-inflammatory Drugs” (Molecules, 2019)
